Experimental data published in the supplement of paper PMC10331698.
± gives the standard deviation of the averaged measurements.

Tests used:
Test in all cases: level (log10 ratio to DMSO vehicle control); higher = higher biomarker level / cell amount than vehicle control
Settings in all cases: in DMSO
[1] = compound: O=C(O)C(F)(F)C(F)(F)OC(F)(F)F [Perfluoro-3-methoxypropanoic acid]
Procedure: (§1)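 BioMAP Diversity Plus panel of 12 human primary cell co-culture systems (3C, 4H, LPS, SAg, BT, BF4T, BE3C, CASM3C, HDF3CGF, KF3CT, MyoF, Mphg). Compounds were added 1 h before stimulation and left for 24 h (MyoF 48 h; BT 72 h for soluble read-outs or 6 d for IgG). Biomarkers were read by ELISA, cytotoxicity by SRB, PBMC viability and proliferation by Alamar Blue. Each well value was divided by the mean of 8 DMSO control wells on the same plate and log10 transformed; duplicate blinded samples were tested at 4 concentrations.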

[2] = compound: O=C(O)C(F)(F)C(F)(F)C(F)(F)OC(F)(C(F)(F)F)C(F)(F)F [Perfluoro-4-isopropoxybutanoic acid]
Procedure: as §1

[3] = compound: O=S(=O)(O)C(F)(F)C(F)(F)C(F)(F)C(F)(F)C(F)(F)C(F)(F)F [Perfluorohexanesulfonic acid]
Procedure: as §1

[4] = compound: FC(F)(F)C(F)(C(F)(F)F)C(F)(F)C(F)(F)CC1CO1 [3-(Perfluoro-3-methylbutyl)-1,2-propenoxide]
Procedure: as §1

[5] = compound: O=C(O)C(F)(F)C(F)(F)C(F)F [4H-Perfluorobutanoic acid]
Procedure: as §1

Pentafluoropropionamide = compound: NC(=O)C(F)(F)C(F)(F)F [Pentafluoropropionamide]
Procedure: as §1

Perfluoropentanoic acid = compound: O=C(O)C(F)(F)C(F)(F)C(F)(F)C(F)(F)F [Perfluoropentanoic acid]
Procedure: as §1

Test System | level (log10) ([1]; 6700 nM) | level (log10) ([1]; 20000 nM) | level (log10) ([1]; 60000 nM) | level (log10) ([2]; 6700 nM) | level (log10) ([2]; 20000 nM) | level (log10) ([2]; 60000 nM) | level (log10) ([3]; 6700 nM) | level (log10) ([3]; 20000 nM) | level (log10) ([3]; 60000 nM) | level (log10) ([4]; 6700 nM) | level (log10) ([4]; 20000 nM) | level (log10) ([5]; 6700 nM) | level (log10) ([5]; 20000 nM) | level (log10) ([5]; 60000 nM) | level (log10) (Pentafluoropropionamide; 6700 nM) | level (log10) (Pentafluoropropionamide; 20000 nM) | level (log10) (Pentafluoropropionamide; 60000 nM) | level (log10) (Perfluoropentanoic acid; 6700 nM) | level (log10) (Perfluoropentanoic acid; 20000 nM) | level (log10) (Perfluoropentanoic acid; 60000 nM)
BT:Secreted IgG | -0.0085 ± 0.0021 | 0.01 ± 0.018 | 0.0155 ± 0.0035 | -0.0115 ± 0.0035 | -0.0005 ± 0.03 | -0.059 ± 0.013 | -0.0295 ± 0.0064 | 0.0015 ± 0.0064 | 0.0085 ± 0.0035 | -0.007 ± 0.064 | 0.016 ± 0.09 | 0.0315 ± 0.036 | 0.0205 ± 0.03 | 0.014 ± 0.041 | 0.0065 ± 0.039 | -0.0075 ± 0.046 | 0.0155 ± 0.0064 | -0.0065 ± 0.016 | 0.0145 ± 0.0035 | -0.009 ± 0.059
BT:sIL-17F | -0.161 ± 0.067 | -0.033 ± 0.052 | -0.0115 ± 0.011 | -0.0935 ± 0.005 | -0.092 ± 0.04 | -0.063 ± 0.045 | 0.0235 ± 0.09 | 0.0375 ± 0.018 | -0.063 | 0.0485 ± 0.028 | -0.0345 ± 0.093 | -0.0445 ± 0.005 | -0.067 ± 0.17 | -0.0165 ± 0.036 | -0.02 ± 0.085 | -0.03 | 0.0275 ± 0.0064 | -0.06 ± 0.027 | -0.0325 ± 0.044 | 0.0375 ± 0.19
BF4T:MMP-9 | -0.002 ± 0.0028 | -0.0125 ± 0.011 | 0.032 ± 0.013 | 0.012 ± 0.0057 | 0.0275 ± 0.0064 | 0.058 ± 0.034 | 0.006 ± 0.065 | 0.0115 ± 0.073 | 0.0135 ± 0.056 | 0.0085 ± 0.005 | -0.0125 ± 0.026 | -0.018 ± 0.028 | -0.0245 ± 0.036 | -0.008 ± 0.038 | 0.02 ± 0.024 | -0.001 ± 0.021 | 0.027 ± 0.0042 | -0.0115 ± 0.0064 | -0.0115 ± 0.019 | -0.0005 ± 0.035
3C:CXCL8/IL-8 | -0.017 ± 0.051 | -0.0255 ± 0.021 | 0.005 ± 0.037 | -0.0055 ± 0.015 | 0.007 ± 0.013 | 0.043 ± 0.034 | -0.004 ± 0.014 | 0.031 | 0.069 ± 0.024 | -0.0065 ± 0.018 | 0.008 ± 0.014 | -0.0015 ± 0.054 | 0.009 ± 0.0071 | 0.0395 ± 0.042 | -0.026 ± 0.013 | -0.028 ± 0.0099 | 0.002 ± 0.044 | -0.0065 ± 0.0092 | -0.005 ± 0.027 | 0.03 ± 0.079
4H:CD106/VCAM-1 | 0.0005 ± 0.016 | -0.005 ± 0.0085 | 0.007 ± 0.0057 | 0.0075 ± 0.011 | -0.019 ± 0.0028 | -0.011 ± 0.025 | -0.013 ± 0.0042 | -0.023 ± 0.0042 | -0.012 ± 0.014 | 0.0245 ± 0.043 | 0.0215 ± 0.042 | -0.003 ± 0.014 | -0.0165 ± 0.011 | 0.0065 ± 0.011 | -0.02 | -0.011 ± 0.03 | 0.0015 ± 0.0092 | 0.002 ± 0.038 | 0.0125 ± 0.0021 | 0.024 ± 0.013
LPS:sPGE2 | -0.0295 ± 0.03 | 0.0045 ± 0.052 | -0.0185 ± 0.011 | -0.0145 ± 0.043 | -0.0585 ± 0.022 | -0.0615 ± 0.023 | 0.0115 ± 0.0064 | -0.007 ± 0.0099 | -0.106 ± 0.028 | -0.012 ± 0.023 | -0.0095 ± 0.054 | 0.0025 ± 0.054 | -0.111 ± 0.054 | -0.052 ± 0.013 | 0.032 ± 0.0085 | -0.008 ± 0.0071 | -0.018 ± 0.014 | -0.008 ± 0.11 | -0.018 ± 0.0028 | 0.017 ± 0.011
BF4T:tPA | 0.0015 ± 0.037 | 0.0035 ± 0.018 | 0.019 ± 0.04 | -0.036 ± 0.017 | -0.015 ± 0.016 | 0.0145 ± 0.057 | -0.004 ± 0.023 | -0.0125 ± 0.013 | 0.022 ± 0.0057 | 0.0135 ± 0.00071 | 0.0135 ± 0.0021 | -0.002 ± 0.037 | 0.003 ± 0.028 | 0.0475 ± 0.022 | -0.013 ± 0.0028 | -0.014 ± 0.0042 | 0 ± 0.02 | -0.0295 ± 0.005 | -0.0215 ± 0.029 | -0.009 ± 0.061
